Assay results published in paper PMC7821958, “Synthesis, in vitro enzyme activity and molecular docking studies of new benzylamine-sulfonamide derivatives as selective MAO-B inhibitors” (Journal of Enzyme Inhibition and Medicinal Chemistry, 2020).
“Also recorded” adds a separate entry of the source.

Legend:
MAO-B = tested on: MAO-B; design: method as in PMID 27028260; details: read-out: IC50 against MAO-B; cited from earlier work
hMAO-B [1] = molecular target: T1, hMAO-B (Homo sapiens, UniProt P27338); test: Enzyme kinetic studies (Lineweaver-Burk plots, secondary plot); format: biochemical; details: for type of inhibition: Lineweaver-Burk plot; for Ki: substrate tyramine, secondary plot, read-out: Ki, steady-state inhibition constant
T1 construct: purchased Sigma-Aldrich (Steinheim, Germany)
T1 sequence (P27338 1-520): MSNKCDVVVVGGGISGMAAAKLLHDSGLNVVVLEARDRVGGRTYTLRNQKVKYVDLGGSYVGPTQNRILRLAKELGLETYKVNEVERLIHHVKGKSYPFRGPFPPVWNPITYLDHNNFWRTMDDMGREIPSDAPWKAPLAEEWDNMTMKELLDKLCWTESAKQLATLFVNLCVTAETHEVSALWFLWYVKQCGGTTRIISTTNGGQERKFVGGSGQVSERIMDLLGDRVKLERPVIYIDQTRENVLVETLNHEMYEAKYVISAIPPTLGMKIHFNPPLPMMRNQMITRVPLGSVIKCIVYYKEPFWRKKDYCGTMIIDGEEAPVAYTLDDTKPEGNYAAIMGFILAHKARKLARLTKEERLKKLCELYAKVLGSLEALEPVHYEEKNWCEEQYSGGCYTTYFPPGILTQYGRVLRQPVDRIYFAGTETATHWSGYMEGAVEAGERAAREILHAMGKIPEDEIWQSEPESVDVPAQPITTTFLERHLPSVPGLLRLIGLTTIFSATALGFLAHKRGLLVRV
Description: The same materials were used in the MAO inhibition assay. […] All processes were evaluated in quadruplicate. The results were analysed as Lineweaver–Burk plots by means of Microsoft Office Excel 2013. The […] of the Lineweaver–Burk plots were replotted versus the inhibitor concentration, and the Ki values were determined from the x-axis intercept as −Ki.
Enzyme kinetics studies were performed to determine the mechanism of hMAO-B inhibition by using a procedure similar to that of the MAO inhibition assay. […] In order to estimate the type of inhibition of these compounds, linear Lineweaver-Burk graphs were used. Substrate velocity curves in the absence and presence of compounds 4i and 4t were recorded. […] In each case, the initial velocity measurements were obtained at different substrate (tyramine) concentrations ranging from 20 μM to 0.625 μM.
The type of inhibition can be determined as either reversible or irreversible by using the Lineweaver-Burk plots. The reversible inhibition type can be classified as mixed-type, uncompetitive, competitive, or non-competitive[17]^,[20–22]. […] Competitive inhibition is seen if the lines intersect on the y-axis, and the slopes and x-intercepts are different. On the contrary, non-competitive inhibition has the opposite result: the plotted lines have the same x-intercept but there are diverse slopes and y-intercepts.

hMAO-A = molecular target: T2, hMAO-A (Homo sapiens, UniProt P21397); test: MAO-A inhibition assay, fluorometric (Amplex Red / horseradish peroxidase-coupled); format: biochemical; details: read-out: MAO-A % Inhibition; for inhibition at 1000 µM: 10^−3 M; for inhibition at 100 µM: 10^−4 M
T2 construct: purchased Sigma-Aldrich (Steinheim, Germany)
T2 sequence (P21397 1-527): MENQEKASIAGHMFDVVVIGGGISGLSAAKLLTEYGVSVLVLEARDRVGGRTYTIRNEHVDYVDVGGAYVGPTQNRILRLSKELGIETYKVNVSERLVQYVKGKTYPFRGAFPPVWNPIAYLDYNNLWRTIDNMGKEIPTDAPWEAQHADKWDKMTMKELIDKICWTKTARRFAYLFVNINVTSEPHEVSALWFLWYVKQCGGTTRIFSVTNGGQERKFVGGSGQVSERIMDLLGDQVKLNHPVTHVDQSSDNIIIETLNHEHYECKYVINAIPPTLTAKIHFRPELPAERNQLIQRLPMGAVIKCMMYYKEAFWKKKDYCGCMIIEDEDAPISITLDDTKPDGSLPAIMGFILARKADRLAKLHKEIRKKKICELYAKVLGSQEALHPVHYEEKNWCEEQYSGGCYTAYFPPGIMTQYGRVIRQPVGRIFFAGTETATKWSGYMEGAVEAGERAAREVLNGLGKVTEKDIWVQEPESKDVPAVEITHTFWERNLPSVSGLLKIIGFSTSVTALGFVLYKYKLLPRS
Description: A Biotek Precision XS robotic system (USA) was used for all pipetting operations. Measurements were performed with the use of BioTek-Synergy H1 microplate reader (USA) based upon the fluorescence generated (excitation, 535 nm, emission, 587 nm) over a 30 min period, in which the fluorescence increased linearly.
Enzymatic assay was performed according to recent method pronounced by our research group[17]^,[20–22]. Control, blank and all concentrations of obtained compounds were tested in quadruplicate and inhibition percent was calculated with following equation: % Inhibition=(FCt2 − FCt1) − (FIt2 − FIt1)/FCt2 − FCt1 × 100
FCt2: Fluorescence of a control well measured at t2 time, FCt1: Fluorescence of a control well measured at […]: Fluorescence of an inhibitor well measured at t2 time, FIt1: Fluorescence of an inhibitor well measured at t1 time,
The IC50 values were calculated using a dose-response curve achieved by plotting the percentage inhibition versus the log concentration using GraphPad ‘PRISM’ software (version 5.0).
All the obtained benzylamine-sulphonamide derivatives 4a–4u were investigated for their inhibitory activity against MAO isoforms using a previously described in vitro fluorometric method, which is based on the detection of H2O2 in a horseradish peroxidase-coupled reaction using 10-acetyl-3,7-dihydroxyphenoxazine (Amplex Red reagent)[17]^,[20–22].
The assay was carried out in two steps. […].

[2] = tested on: NIH/3T3 mouse embryonic fibroblast cell line; test: Cytotoxicity MTT assay; format: cell-based; details: NIH3T3 cells
Description: (§1) The NIH/3T3 mouse embryonic fibroblast cell line (ATCC®CRL-1658 ™, London, UK) was used for cytotoxicity assays. The incubation period of NIH/3T3 cells was based on the supplier's recommendation. NIH/3T3 cells were seeded at 1 × 10^4 cells into each well of 96-well plates. MTT assay was carried out in accordance with the standards previously described manner[23]^,[24]. The compounds were tested between 1 and 0.000316 mM concentrations.

Cytotoxicity MTT assay = format: cell-based, mouse; details: mouse, NIH/3T3 mouse embryonic fibroblast cells, read-out: IC50 NIH/3T3 cell line
Description: as §1

hMAO-B [3] = molecular target: T1, hMAO-B; test: MAO-B inhibition assay, fluorometric (Amplex Red / horseradish peroxidase-coupled); format: biochemical; details: for inhibition at 1000 µM: 10^−3 M; for inhibition at 100 µM: 10^−4 M; for inhibition at 10 µM: 10^−5 M; for inhibition at 1 µM: 10^−6 M; for inhibition at 0.1 µM: 10^−7 M; for inhibition at 0.01 µM: 10^−8 M; for inhibition at 0.001 µM: 10^−9 M; for IC50: Table 2, mean ± SD, read-out: IC50 against MAO-B;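 for all read-outs here: fluorescence read at Ex 535 nm and Em 587 nm over 30 min, linear phase, inhibition relative to uninhibited control wells, IC50 from log concentration–response curves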
Description: FCt2: Fluorescence of a control well measured at t2 time, FCt1: Fluorescence of a control well measured at t2 time, FIt2: Fluorescence of an inhibitor well measured at t2 time, FIt1: Fluorescence of an inhibitor well measured at t1 time,

type of inhibition (hMAO-B [1]) | Ki (hMAO-B [1]) | melting point | inhibition at 1000 µM (hMAO-A) | inhibition at 100 µM (hMAO-A) | inhibition at 1000 µM (hMAO-B [3]) | inhibition at 100 µM (hMAO-B [3]) | inhibition at 10 µM (hMAO-B [3]) | inhibition at 1 µM (hMAO-B [3]) | inhibition at 0.1 µM (hMAO-B [3]) | inhibition at 0.01 µM (hMAO-B [3]) | inhibition at 0.001 µM (hMAO-B [3]) | IC50 (hMAO-B [3]) | SMILES | IC50 (MAO-B) | cytotoxicity (in words) [2] | IC50 (Cytotoxicity MTT assay)
 |  |  |  |  |  |  |  |  |  |  |  |  | O=C(CSc1nc2cc(Cl)ccc2s1)N(Cc1cccc([N+](=O)[O-])c1)c1ccc(F)cc1 [BB-4h, 2-((5-chlorobenzothiazol-2-yl)thio)-N-(4-fluorophenyl)-N-(3-nitrobenzyl)acetamide] | 2950 ± 90 nM |  | 
reversible and non-competitive | 55 nM | 109 to 111 °C | 52.6 ± 0.987% | 38.3 ± 0.503% | 92.6 ± 1.13% | 88.6 ± 1.2% | 80.5 ± 1.16% | 74.7 ± 1.01% | 60.8 ± 1.16% | 36.1 ± 0.862% | 21 ± 0.594% | 65 ± 2 nM | Cc1ccc(CN(C(=O)CSc2nc3cc(Cl)ccc3s2)c2ccc(S(N)(=O)=O)cc2)cc1 [Compound 4t, 2-((5-Chlorobenzothiazol-2-yl)thio)-N-(4-methylbenzyl)-N-(4-sulfamoylphenyl)acetamide] |  | non-toxic; also recorded: non-cytotoxic at their effective concentrations | > 1 mM
reversible and non-competitive | 36 nM | 114 to 116 °C | 56.3 ± 0.996% | 40.5 ± 0.782% | 94.9 ± 1.41% | 91.8 ± 1.26% | 78.6 ± 1.11% | 72.5 ± 1.11% | 65.2 ± 0.985% | 46.5 ± 0.892% | 24.5 ± 0.627% | 41 ± 1 nM | NS(=O)(=O)c1ccc(N(Cc2ccccc2)C(=O)CSc2nc3cc(Cl)ccc3s2)cc1 [Compound 4i, N-Benzyl-2-((5-chlorobenzothiazol-2-yl)thio)-N-(4-sulfamoylphenyl)acetamide] |  | non-toxic; also recorded: non-cytotoxic at their effective concentrations | > 1 mM
